The experiment has as its target T1, ΔF508-CFTR (Homo sapiens, UniProt P13569, DEL508-508).
T1 construct: expressed in transfected cells; host or cells: NIH3T3 mouse fibroblasts, stably expressing, temperature-corrected at 27 °C
The experiment is described as follows: Membrane potential optical assay, identification of potentiator compounds. The format is cell-based. To be noted: assay not specified; ΔF508-CFTR potentiation, NIH 3T3 cells. The source says: Membrane Potential Optical Methods for Assaying ΔF508-CFTR Modulation Properties of Compounds
The assay utilizes fluorescent voltage sensing dyes to measure changes in membrane potential using a fluorescent plate reader (e.g., FLIPR III, Molecular Devices, Inc.) as a readout for increase in functional ΔF508-CFTR in NIH 3T3 cells. The driving force for the response is the creation of a chloride ion gradient in conjunction with channel activation by a single liquid addition step after the cells have previously been treated with compounds and subsequently loaded with a voltage sensing dye.
Identification of Potentiator Compounds
To identify potentiators of ΔF508-CFTR, a double-addition HTS assay format was developed. This HTS assay utilizes fluorescent voltage sensing dyes to measure changes in membrane potential on the FLIPR III as a measurement for increase in gating (conductance) of ΔF508 CFTR in temperature-corrected ΔF508 CFTR NIH 3T3 cells. The driving force for the response is a ion gradient in conjunction with channel activation with forskolin in a single liquid addition step using a fluorescent plate reader such as FLIPR III after the cells have previously been treated with potentiator compounds (or DMSO vehicle control) and subsequently loaded with a redistribution dye.
Bath Solution #1: (in mM) NaCl 160, KCl 4.5, CaCl2 2, MgCl2 1, HEPES 10, pH 7.4 with NaOH. […]

T1 sequence (P13569 with tags, fused parts or gaps DEL508-508): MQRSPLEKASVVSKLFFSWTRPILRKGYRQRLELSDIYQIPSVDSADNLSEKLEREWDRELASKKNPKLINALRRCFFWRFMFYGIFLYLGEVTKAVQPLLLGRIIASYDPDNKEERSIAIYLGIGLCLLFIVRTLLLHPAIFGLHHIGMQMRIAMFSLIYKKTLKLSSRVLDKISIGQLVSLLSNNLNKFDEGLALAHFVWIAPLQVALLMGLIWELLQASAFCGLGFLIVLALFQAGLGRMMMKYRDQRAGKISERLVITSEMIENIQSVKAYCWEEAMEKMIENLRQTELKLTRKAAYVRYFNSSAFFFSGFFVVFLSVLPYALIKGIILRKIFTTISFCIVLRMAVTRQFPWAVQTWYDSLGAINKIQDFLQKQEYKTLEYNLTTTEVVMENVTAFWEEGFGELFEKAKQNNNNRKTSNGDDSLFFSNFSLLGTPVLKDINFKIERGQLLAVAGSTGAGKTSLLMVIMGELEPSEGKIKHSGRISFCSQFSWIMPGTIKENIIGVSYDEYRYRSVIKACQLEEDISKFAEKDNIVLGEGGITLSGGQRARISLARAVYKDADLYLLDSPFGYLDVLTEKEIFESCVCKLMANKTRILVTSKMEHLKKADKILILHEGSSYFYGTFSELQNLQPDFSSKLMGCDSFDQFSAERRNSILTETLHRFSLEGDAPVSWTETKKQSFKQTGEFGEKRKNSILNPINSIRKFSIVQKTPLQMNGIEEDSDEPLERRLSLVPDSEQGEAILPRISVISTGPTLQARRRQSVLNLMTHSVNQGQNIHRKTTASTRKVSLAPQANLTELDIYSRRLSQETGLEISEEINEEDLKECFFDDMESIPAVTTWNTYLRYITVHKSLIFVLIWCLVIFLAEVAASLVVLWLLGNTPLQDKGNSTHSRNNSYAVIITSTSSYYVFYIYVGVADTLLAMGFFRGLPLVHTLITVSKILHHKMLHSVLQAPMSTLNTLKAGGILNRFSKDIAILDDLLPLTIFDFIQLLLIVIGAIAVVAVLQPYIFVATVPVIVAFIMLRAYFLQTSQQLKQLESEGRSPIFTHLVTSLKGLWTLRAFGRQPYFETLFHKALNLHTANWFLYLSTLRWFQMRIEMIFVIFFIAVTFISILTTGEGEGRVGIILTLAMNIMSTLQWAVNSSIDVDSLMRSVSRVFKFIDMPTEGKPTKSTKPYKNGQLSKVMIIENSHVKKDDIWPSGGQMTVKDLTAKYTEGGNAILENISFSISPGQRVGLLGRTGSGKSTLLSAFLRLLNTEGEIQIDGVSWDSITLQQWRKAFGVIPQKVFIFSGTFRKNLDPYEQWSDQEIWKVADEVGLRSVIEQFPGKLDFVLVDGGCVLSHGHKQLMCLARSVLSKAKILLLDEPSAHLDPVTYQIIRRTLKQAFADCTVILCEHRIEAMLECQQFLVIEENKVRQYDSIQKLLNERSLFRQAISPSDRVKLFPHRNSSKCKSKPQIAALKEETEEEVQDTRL

`O=C(Nc1ccc(N2C3CCC2CC3)cc1C(F)(F)F)c1c[nH]c2cccc(C(F)(F)F)c2c1=O` [Compound 1 Form A, N-(4-(7-azabicyclo[2.2.1]heptan-7-yl)-2-(trifluoromethyl)phenyl)-4-oxo-5-(trifluoromethyl)-1,4-dihydroquinoline-3-carboxamide]: the EC50 is below 2000 nM.
